Data from publication PMC4775224 (2015).
Values belong to the compound of their own block, whether it stands above or below them.

Test system: TPP riboswitch aptamer (wtAtRs1 + wtAtRs2 + wtAtRs3, splint-ligated) (RNA, riboswitch, amino-modified U (5-N-U) at 59 (U replaces G88 in paper numbering); amino-modified U (5-LC-N-U) at 123 (U25 in paper numbering)) AUCGAGAGGGACACGGGGAAACACCACCAUAUAUGCACCAGGGGUGCUUGAACCAGGAUAGCCUGCGAAAAGGCGGGCUAUCCGGGACCAGGCUGAGAAAGUCCCUUUGAACCUGAACAGGGUAAUGCCUGCGCAGGGAGUGUGCUAACAAGGUCACCAUCAUCCUGACUAGAGUCCUUGG
Test: optical-trap force spectroscopy with smFRET
Conditions: 130 mM KCl, 4 mM Mg2+, 50 mM HEPES pH 7.5, 1 mM EDTA, oxygen scavengers

binding (2 mM thiamine (saturating), arms not docked): yes
SMILES: Cc1ncc(C[n+]2csc(CCO)c2C)c(N)n1

binding (2 mM TMP (saturating), arms not docked): yes
SMILES: Cc1ncc(C[n+]2csc(CCOP(=O)(O)O)c2C)c(N)n1

binding (5 µM, 50 µM and 2 mM TPP, weak then strong state): yes
SMILES: Cc1ncc(C[n+]2csc(CCOP(=O)(O)OP(=O)(O)O)c2C)c(N)n1
